Consider 13 compounds from the OPERA property sets (Mansouri et al. 2018).

Usually logP stands for the decadic logarithm of the partition coefficient of the neutral form, usually between octanol and water. The low end stands for a more hydrophilic compound, the high end for a more lipophilic compound. `CC(C)C1(C(C)C)C(=O)NC(=O)NC1=O` had a lipophilicity (logP) of 1.56.

In the case of `CCC(C)C1(CC)C(=O)NC(=O)NC1=O` (stereo not drawn), the logP was found to be 1.65. This logP and that of the compound before are within 0.2 log units of each other. With `CCCCC1(CCCC)C(=O)NC(=O)NC1=O` the figure was 2.7; with `CCCC1(CCC)C(=O)NC(=O)NC1=O`, 1.75. `CC(C)C1(C)C(=O)NC(=O)NC1=O` returned a logP of 0.54. With `C=CCC1(C(C)(C)C)C(=O)NC(=O)NC1=O` the figure was 1.64; with `CC(C)(C)C1(Cl)C(=O)NC(=O)NC1=O`, 0.82. With `CCC1(CC)C(=O)NC(=S)NC1=O` the figure was 1.5. Under `CC(C)C1C(=O)NC(=O)NC1=O` stands -0.02. Turning to `CCC1(C(C)(C)C)C(=O)NC(=O)NC1=O`, the log partition coefficient (logP) was determined as 1.38. Under `CCCC1(CCC)C(=O)NC(=S)NC1=O` stands 2.66; under `CC(C)(C)C1(C)C(=O)NC(=O)NC1=O`, 0.8; under `CC(C)(C)C1C(=O)NC(=O)NC1=O`, 0.28.
